According to patent US20250353873A1, “COMPOUNDS AND METHODS FOR MODULATING APOE EXPRESSION” (Ionis Pharmaceuticals, Inc., priority 2024, published 2025):
Strand notation (5' to 3'): a small letter for the sugar, then the base; units joined by * are phosphorothioate-linked, units joined directly phosphodiester-linked; [ ] holds rarer units or linkages, { } end groups; capitals alone tell only the bases. [ms] = mesyl phosphoramidate linkage; e = 2'-O-(2-methoxyethyl) (MOE); k = constrained ethyl (cEt); [5mC] = 5-methylcytosine; d = 2'-deoxy (DNA)

Columns and labels:
human APOE RNA [1] = assay: Dose-dependent inhibition of human APOE RNA in HepG2 cells, electroporation, 50,000 cells per well, RT-PCR normalized to GAPDH (Example 4, Tables 8-10); type: cell-based; conditions: for APOE RNA (% UTC) 1,280 nM: 24-hour treatment, 1,280 nM; for APOE RNA (% UTC) 3,200 nM: 24-hour treatment, 3,200 nM; for APOE RNA (% UTC) 8,000 nM: 24-hour treatment, 8,000 nM; for APOE RNA (% UTC) 20,000 nM: 24-hour treatment, 20,000 nM
Procedure, shortened: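 HepG2 cells, 50,000 per well, electroporated with modified oligonucleotide at various concentrations. APOE RNA quantified by RT-PCR with human primer probe set RTS3073, normalized to GAPDH. Values are percent APOE RNA relative to untreated control cells.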

human APOE RNA [2] = assay: Activity in APOE C57BL/6NTac-Apoeem7250 knock-in mice, single ICV bolus, 4 weeks (Example 10); type: in vivo; conditions: single ICV bolus 300 μg, 4 weeks post treatment, normalized to mouse Ppia
Procedure, shortened: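 Knock-in mice (2–4 per group) received one 300 μg ICV bolus of oligonucleotide or PBS. After four weeks, human APOE RNA in cortex and spinal cord measured by RT-qPCR (primer probe set RTS3073), normalized to mouse Ppia, expressed as % of PBS controls.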

human APOE RNA [3] = assay: Activity in APOE C57BL/6NTac-Apoeem7250 knock-in mice, single ICV bolus, 8 weeks (Example 11); type: in vivo; conditions: single ICV bolus 300 μg, 8 weeks post treatment, normalized to mouse Ppia
Procedure, shortened: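 Human APOE knock-in C57BL/6NTac mice given one ICV bolus of 300 μg oligonucleotide; PBS-dosed group as control. At 8 weeks, cortex and spinal cord RNA measured by qRT-PCR (human probe RTS3073), normalized to mouse Ppia, expressed as % of PBS control.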

human APOE RNA [4] = assay: Activity in APOE C57BL/6NTac-Apoeem7250 knock-in mice, single ICV bolus, 16 weeks (Example 12); type: in vivo; conditions: single ICV bolus 300 μg, 16 weeks post treatment, normalized to mouse Ppia
Procedure, shortened: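 Knock-in mice (3-4 per group) received one ICV bolus of 300 μg oligonucleotide, PBS as control. After 16 weeks, human APOE RNA in cortex and spinal cord measured by RT-qPCR, normalized to mouse Ppia, and reported as % of PBS control.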

human APOE RNA [5] = assay: Activity in APOE C57BL/6NTac-Apoeem7250 knock-in mice, single ICV bolus, 20 weeks (Example 13); type: in vivo; conditions: single ICV bolus 300 μg, 20 weeks post treatment, normalized to mouse Ppia
Procedure, shortened: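 Knock-in mice (n=4) given a single ICV bolus of 300 μg oligonucleotide, PBS as control. After 20 weeks, human APOE RNA in cortex and spinal cord measured by RT-qPCR, normalized to mouse Ppia, expressed as % of PBS-treated animals.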

[6] = HepG2 cells, electroporation, 24-hour treatment, 5 nM, Table 8
[7] = HepG2 cells, electroporation, 24-hour treatment, 13 nM, Table 8
[8] = HepG2 cells, electroporation, 24-hour treatment, 33 nM, Table 8
[9] = HepG2 cells, electroporation, 24-hour treatment, 82 nM, Table 8
[10] = HepG2 cells, electroporation, 24-hour treatment, 205 nM, Table 8
[11] = HepG2 cells, electroporation, 24-hour treatment, 512 nM, Table 8
[12] = HepG2 cells, electroporation, Table 8
[13] = reduction of human APOE RNA, HepG2 cells, electroporation, 24-hour treatment, Table 8
[14] = 5 nM, HepG2, electroporation, 16-hour treatment
[15] = 13 nM, HepG2, electroporation, 16-hour treatment
[16] = 33 nM, HepG2, electroporation, 16-hour treatment
[17] = 82 nM, HepG2, electroporation, 16-hour treatment
[18] = 205 nM, HepG2, electroporation, 16-hour treatment
[19] = 512 nM, HepG2, electroporation, 16-hour treatment
[20] = 1,280 nM, HepG2, electroporation, 16-hour treatment
[21] = 3,200 nM, HepG2, electroporation, 16-hour treatment
[22] = 8,000 nM, HepG2, electroporation, 16-hour treatment
[23] = 20,000 nM, HepG2, electroporation, 16-hour treatment
[24] = HepG2, electroporation, 16-hour treatment

Substance | APOE RNA (% UTC) 5 nM (human APOE RNA [1]; [6]) [% UTC] | APOE RNA (% UTC) 13 nM (human APOE RNA [1]; [7]) [% UTC] | APOE RNA (% UTC) 33 nM (human APOE RNA [1]; [8]) [% UTC] | APOE RNA (% UTC) 82 nM (human APOE RNA [1]; [9]) [% UTC] | APOE RNA (% UTC) 205 nM (human APOE RNA [1]; [10]) [% UTC] | APOE RNA (% UTC) 512 nM (human APOE RNA [1]; [11]) [% UTC] | APOE RNA (% UTC) 1,280 nM (human APOE RNA [1]; [12]) [% UTC] | APOE RNA (% UTC) 3,200 nM (human APOE RNA [1]; [12]) [% UTC] | APOE RNA (% UTC) 8,000 nM (human APOE RNA [1]; [12]) [% UTC] | APOE RNA (% UTC) 20,000 nM (human APOE RNA [1]; [12]) [% UTC] | IC50 (human APOE RNA [1]; [13]) [nM] | APOE RNA (% control) Cortex (human APOE RNA [2]) [% control] | APOE RNA (% control) Spinal Cord (human APOE RNA [2]) [% control] | APOE RNA (% control) Cortex (human APOE RNA [3]) [% control] | APOE RNA (% control) Spinal Cord (human APOE RNA [3]) [% control] | APOE RNA (% control) Cortex (human APOE RNA [4]) [% control] | APOE RNA (% control) Spinal Cord (human APOE RNA [4]) [% control] | APOE RNA (% control) Cortex (human APOE RNA [5]) [% control] | APOE RNA (% control) Spinal Cord (human APOE RNA [5]) [% control] | further results
1778125: modified oligonucleotide complementary to human APOE RNA (eA*e[5mC]eTeTeGeG*dT*dG[ms]dA[ms]dA*dT*d[5mC]*dT*dT*dT*dA[ms]kTkT*eA*eA; antisense) [compound 1778125] | 108 | 100 | 77 | 74 | 63 | 39 | 22 | 17 | 5 | 3 | 320 | 40 | 52 | 59 | 37 | 75 | 42 | 81 | 49 | 
1778129: modified oligonucleotide complementary to human APOE RNA (eA*e[5mC]eTeTeG*kG*dT*dG[ms]dA[ms]dA*dT*d[5mC]*dT*dT*dT*dA[ms]kT*kT*eA*eA; antisense) [compound 1778129] | 124 | 105 | 110 | 77 | 60 | 44 | 29 | 9 | 14 | 2 | 410 | 25 | 47 | 19 | 9 | 34 | 14 | 52 | 24 | 
1757574 (eA*e[5mC]eTeT*eG*eG*dT*dG[ms]dA[ms]dA[ms]dT*d[5mC]*dT*dT*dT*dA[ms]kT*kT*eA*eA; antisense) [Compound 1757574] |  |  |  |  |  |  |  |  |  |  |  | 43 | 32 | 44 | 21 | 55 | 22 | 60 | 68 | APOE RNA (% UTC) (human APOE RNA [1]; [14]): 90 % UTC; APOE RNA (% UTC) (human APOE RNA [1]; [15]): 80 % UTC; APOE RNA (% UTC) (human APOE RNA [1]; [16]): 85 % UTC; APOE RNA (% UTC) (human APOE RNA [1]; [17]): 78 % UTC; APOE RNA (% UTC) (human APOE RNA [1]; [18]): 93 % UTC; APOE RNA (% UTC) (human APOE RNA [1]; [19]): 66 % UTC; APOE RNA (% UTC) (human APOE RNA [1]; [20]): 47 % UTC; APOE RNA (% UTC) (human APOE RNA [1]; [21]): 28 % UTC; APOE RNA (% UTC) (human APOE RNA [1]; [22]): 19 % UTC; APOE RNA (% UTC) (human APOE RNA [1]; [23]): 20 % UTC; IC50 (human APOE RNA [1]; [24]): 1170 nM
1785604: modified oligonucleotide complementary to human APOE RNA (k[5mC]*dT[ms]dT[ms]kG*dG[ms]kT*dG[ms]dA[ms]dA*dT*d[5mC]*dT*dT*dT*dA*dT*kT*kA*dA[ms]kA; antisense) [compound 1785604] | 92 | 108 | 89 | 86 | 69 | 47 | 44 | 47 | 13 | 7 | 870 | 39 | 55 | 28 | 35 | 41 | 27 | 55 | 47 | 
1757571 (eA*e[5mC]eTeT*eG*kG*dT*dG[ms]dA[ms]dA[ms]dT*d[5mC]*dT*dT*dT*dA[ms]eT*eT*eA*eA; antisense) [Compound 1757571] |  |  |  |  |  |  |  |  |  |  |  | 48 | 35 | 66 | 33 | 47 | 26 | 53 | 73 | APOE RNA (% UTC) (human APOE RNA [1]; [14]): 68 % UTC; APOE RNA (% UTC) (human APOE RNA [1]; [15]): 86 % UTC; APOE RNA (% UTC) (human APOE RNA [1]; [16]): 98 % UTC; APOE RNA (% UTC) (human APOE RNA [1]; [17]): 62 % UTC; APOE RNA (% UTC) (human APOE RNA [1]; [18]): 103 % UTC; APOE RNA (% UTC) (human APOE RNA [1]; [19]): 38 % UTC; APOE RNA (% UTC) (human APOE RNA [1]; [20]): 26 % UTC; APOE RNA (% UTC) (human APOE RNA [1]; [21]): 24 % UTC; APOE RNA (% UTC) (human APOE RNA [1]; [22]): 14 % UTC; APOE RNA (% UTC) (human APOE RNA [1]; [23]): 11 % UTC; IC50 (human APOE RNA [1]; [24]): 550 nM
1778123: modified oligonucleotide complementary to human APOE RNA (eA*e[5mC]eTeTeG*eG*dT*dG[ms]dA[ms]dA*dT*d[5mC]*dT*dT*dT*dA[ms]kTkT*eA*eA; antisense) [compound 1778123] | 79 | 91 | 84 | 76 | 55 | 51 | 25 | 11 | 6 | 5 | 320 | 37 | 59 | 49 | 29 | 54 | 31 | 77 | 36 | 
1785601: modified oligonucleotide complementary to human APOE RNA (k[5mC]*kT*kT*dG[ms]dG[ms]dT[ms]dG*dA[ms]dA[ms]dT*d[5mC]*dT*dT*dT*dA[ms]dT*kT*kA*dA[ms]kA; antisense) [compound 1785601] | 111 | 115 | 101 | 75 | 63 | 36 | 25 | 15 | 16 | 10 | 380 | 33 | 40 | 28 | 211 | 39 | 21 | 43 | 31 | 
